Measurements: patent US20240158393A1, “PYRIDONE COMPOUNDS AND METHODS OF USE” (Exelixis, Inc., priority 2021, published 2024)

Tests used:
Human KDR = molecular target: T1, Human KDR (Homo sapiens, UniProt P35968); experiment: Human KDR kinase assay (33P radiometric / HTRF KinEase); format: biochemical; conditions: protocols of Examples B-1 and/or B-2
T1 construct: Human KDR (residues K790-V1356, 55 nM); purchased Eurofins Pharma Discovery Services UK Limited (KinaseProfiler, B-1) and/or CarnaBio (B-2)
In short: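 Radiometric: KDR K790-V1356 (55 nM), MOPS pH 7.0, myelin basic protein, 10 μM [γ-33P]ATP, 40 min at room temperature, filter-bound 33P counted; nine half-log doses, top 1 μM. HTRF: KDR 790-1356, 1 μM biotinylated peptide, ATP at Km (4.0 μM), 40 min, 10 doses. IC50 from logistic fits.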

Human Axl = molecular target: T2, Human Axl (Homo sapiens, UniProt P30530); experiment: Human AXL kinase assay (33P radiometric / HTRF KinEase); format: biochemical; conditions: protocols of Examples A-1 and/or A-2
T2 construct: Human AXL (residues 464-885)
T2 sequence (P30530 1-894 Q764R): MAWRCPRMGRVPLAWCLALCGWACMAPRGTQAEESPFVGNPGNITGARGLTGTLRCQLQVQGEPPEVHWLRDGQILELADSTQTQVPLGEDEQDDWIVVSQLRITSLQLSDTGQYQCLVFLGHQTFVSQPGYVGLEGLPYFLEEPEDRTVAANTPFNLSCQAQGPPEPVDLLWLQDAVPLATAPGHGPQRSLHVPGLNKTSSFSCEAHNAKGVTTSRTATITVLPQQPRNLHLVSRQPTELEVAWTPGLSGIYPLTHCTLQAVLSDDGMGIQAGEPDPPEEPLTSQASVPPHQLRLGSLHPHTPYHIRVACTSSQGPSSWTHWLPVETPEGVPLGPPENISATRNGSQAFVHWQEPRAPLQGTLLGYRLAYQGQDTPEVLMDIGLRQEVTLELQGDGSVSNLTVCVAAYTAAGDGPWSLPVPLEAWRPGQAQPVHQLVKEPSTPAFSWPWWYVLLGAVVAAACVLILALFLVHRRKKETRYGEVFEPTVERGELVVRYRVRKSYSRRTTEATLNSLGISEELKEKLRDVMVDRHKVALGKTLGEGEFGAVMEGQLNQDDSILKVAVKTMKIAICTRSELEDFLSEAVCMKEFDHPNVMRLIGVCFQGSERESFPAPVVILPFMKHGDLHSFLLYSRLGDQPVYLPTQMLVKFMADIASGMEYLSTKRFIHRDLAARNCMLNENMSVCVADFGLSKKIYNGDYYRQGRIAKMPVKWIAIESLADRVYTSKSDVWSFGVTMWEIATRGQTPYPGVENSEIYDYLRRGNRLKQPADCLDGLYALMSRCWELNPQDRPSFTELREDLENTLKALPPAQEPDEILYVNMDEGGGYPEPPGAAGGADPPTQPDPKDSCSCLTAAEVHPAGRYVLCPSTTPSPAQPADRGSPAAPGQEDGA

T1 sequence (P35968 790-1356): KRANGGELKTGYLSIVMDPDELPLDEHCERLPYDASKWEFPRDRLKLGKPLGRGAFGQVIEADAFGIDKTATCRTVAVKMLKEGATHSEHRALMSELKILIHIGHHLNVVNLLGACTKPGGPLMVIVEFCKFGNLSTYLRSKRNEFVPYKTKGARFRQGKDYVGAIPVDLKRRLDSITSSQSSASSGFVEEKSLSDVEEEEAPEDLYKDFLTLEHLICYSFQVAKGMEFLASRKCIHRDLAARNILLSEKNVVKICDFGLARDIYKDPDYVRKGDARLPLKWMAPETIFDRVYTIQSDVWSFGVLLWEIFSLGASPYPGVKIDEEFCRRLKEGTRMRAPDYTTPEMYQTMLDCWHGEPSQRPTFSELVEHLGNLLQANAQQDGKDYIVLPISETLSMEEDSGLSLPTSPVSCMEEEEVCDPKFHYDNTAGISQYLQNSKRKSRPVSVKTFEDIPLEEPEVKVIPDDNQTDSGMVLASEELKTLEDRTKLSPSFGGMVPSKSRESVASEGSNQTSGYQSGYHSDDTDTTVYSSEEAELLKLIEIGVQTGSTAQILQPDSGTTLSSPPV

Row | SMILES | IC50 (Human KDR) [nM] | IC50 (Human Axl) [nM]
1 | COc1cc2nccc(Oc3ccc(NC(=O)c4cn(CCF)c(C)c(C5=CCCCC5)c4=O)cc3F)c2nc1OC [Compound 8, 5-(Cyclohexen-1-yl)-N-[4-[(6,7-dimethoxy-1,5-naphthyridin-4-yl)oxy]-3-fluorophenyl]-1-(2-fluoroethyl)-6-methyl-4-oxopyridine-3-carboxamide] | ≤ 100 | ≤ 100
2 | COc1cc2nccc(Oc3ccc(NC(=O)c4c5n(c(C)c(C6=CCCCC6)c4=O)CCOC5)cc3)c2nc1OC [Compound 100, 7-(Cyclohexen-1-yl)-N-[4-[(6,7-dimethoxy-1,5-naphthyridin-4-yl)oxy]phenyl]-6-methyl-8-oxo-3,4-dihydro-1H-pyrido[2,1-c][1,4]oxazine-9-carboxamide] | > 300 | ≤ 100
3 | COc1cc2nccc(Oc3ccc(NC(=O)c4c(C)n(C)c(C)c(C(=O)O)c4=O)cc3F)c2nc1OC [Compound 92, 5-[[4-[(6,7-Dimethoxy-1,5-naphthyridin-4-yl)oxy]-3-fluorophenyl]carbamoyl]-1,2,6-trimethyl-4-oxopyridine-3-carboxylic acid] | 100 to 300 | > 300
4 | COc1cc2nccc(Oc3ccc(NC(=O)c4c(C)cc(C)n(C5CCCC5)c4=O)cc3F)c2nc1OC [Compound 15, 1-Cyclopentyl-N-[4-[(6,7-dimethoxy-1,5-naphthyridin-4-yl)oxy]-3-fluorophenyl]-4,6-dimethyl-2-oxopyridine-3-carboxamide] | ≤ 100 | ≤ 100

More lines, now with the values ahead:

Row | IC50 (Human KDR) [nM] | IC50 (Human Axl) [nM] | SMILES
5 | ≤ 100 | ≤ 100 | COc1cc2nccc(Oc3ccc(NC(=O)c4c(C)nc(C)c(C(=O)NC5CC5)c4O)cc3F)c2nc1OC [Compound 98, 5-N-Cyclopropyl-3-N-[4-[(6,7-dimethoxy-1,5-naphthyridin-4-yl)oxy]-3-fluorophenyl]-4-hydroxy-2,6-dimethylpyridine-3,5-dicarboxamide]
6 | ≤ 100 | ≤ 100 | COc1cc2nccc(Oc3ccc(NC(=O)c4c(C)nc(C)c(C(=O)N(C)C)c4O)cc3F)c2nc1OC [Compound 93, 3-N-[4-[(6,7-Dimethoxy-1,5-naphthyridin-4-yl)oxy]-3-fluorophenyl]-4-hydroxy-5-N,5-N,2,6-tetramethylpyridine-3,5-dicarboxamide]
7 | ≤ 100 | ≤ 100 | COc1cc2nccc(Oc3ccc(NC(=O)c4c(C)nc(C)c(C5=CCCCC5)c4O)cc3F)c2nc1OC [Compound 2-3, 5-(Cyclohexen-1-yl)-N-[4-[(6,7-dimethoxy-1,5-naphthyridin-4-yl)oxy]-3-fluorophenyl]-4-hydroxy-2,6-dimethylpyridine-3-carboxamide]
